# Calls of active or inactive are those of the source. The rule behind the calls is not given here.
# Columns and labels:
# [1] = test system: MM1.S; experiment: Cytotoxic activity against human MM1S cells assessed as reduction in cell viability incubated for 3 days by ATPlite assay; assay type: functional, cell-based
# [2] = test system: NCI-H2171; experiment: Cytotoxic activity against human NCI-H2171 cells assessed as reduction in cell viability incubated for 3 days by ATPlite assay; assay type: functional, cell-based
# [3] = target: T1, Myc proto-oncogene protein (Homo sapiens, UniProt P01106); experiment: Inhibition of human c-Myc assessed as reduction in c-Myc/Max/Ebox DNA complex formation using pre-formed complex of c-Myc and biotinylated DNA containing single Ebox-sequence followed by compound addition and further addition of his6-tagged c-Max and incubated for 2 hrs by AlphaScreen assay
# [4] = target: T1, Myc proto-oncogene protein; experiment: Inhibition of c-Myc in human NCI-H2171 cells assessed as reduction in c-Myc occupancy at Rp123a binding site at 100 uM incubated for 4 hrs by chromatin immunoprecipitation assay; assay type: cell-based
# [5] = target: T1, Myc proto-oncogene protein; experiment: Inhibition of c-Myc in human NCI-H2171 cells assessed as reduction in c-Myc occupancy at Mat2a binding site at 100 uM incubated for 4 hrs by chromatin immunoprecipitation assay; assay type: cell-based
# [6] = target: T1, Myc proto-oncogene protein; experiment: Inhibition of c-Myc in human NCI-H2171 cells assessed as reduction in c-Myc occupancy at Hnrnpa2b1 binding site at 100 uM incubated for 4 hrs by chromatin immunoprecipitation assay; assay type: cell-based
# [7] = target: T1, Myc proto-oncogene protein; experiment: Inhibition of c-Myc in human NCI-H2171 cells assessed as reduction in c-Myc occupancy at Npm1 binding site at 100 uM incubated for 4 hrs by chromatin immunoprecipitation assay; assay type: cell-based
# [8] = Homo sapiens, MM1.S, 72 h, read-out: EC50
# [9] = Homo sapiens, NCI-H2171, 72 h, read-out: EC50
# T1 sequence (P01106 whole entry): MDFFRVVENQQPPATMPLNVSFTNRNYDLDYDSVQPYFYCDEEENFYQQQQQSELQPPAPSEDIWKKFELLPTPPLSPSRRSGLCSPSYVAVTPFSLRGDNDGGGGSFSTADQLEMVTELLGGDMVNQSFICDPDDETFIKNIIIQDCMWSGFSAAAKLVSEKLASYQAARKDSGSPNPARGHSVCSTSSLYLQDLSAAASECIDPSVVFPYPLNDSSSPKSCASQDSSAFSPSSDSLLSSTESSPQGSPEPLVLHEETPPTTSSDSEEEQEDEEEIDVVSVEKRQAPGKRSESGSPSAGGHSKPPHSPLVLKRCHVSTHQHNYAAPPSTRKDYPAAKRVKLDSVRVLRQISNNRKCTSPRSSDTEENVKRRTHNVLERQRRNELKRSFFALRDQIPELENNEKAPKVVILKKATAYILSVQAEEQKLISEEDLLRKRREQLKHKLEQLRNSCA
Compound,EC50 ([1]; mm1.s),EC50 ([2]; nci-h2171),other results
CN1CCN(c2ccccc2C(=O)O)CC1,Not Active,,
COc1ncc(/C=N/NC(=O)c2ccc(C(=O)O)c(-n3c(C)ccc3C)c2)c(OC)n1,Not Active,,
Cc1ccc(C)n1-c1cc(C(=O)N/N=C\c2cccc(C(=O)O)c2)ccc1C(=O)O,Not Active,Not Active,
Cc1ccc(C)n1-c1cc(C(=O)N/N=C/c2ccc(N(C)C)cc2)ccc1C(=O)O,,Not Active,
Cc1ccc(C)n1-c1cc(C(=O)N/N=C\c2ccc(S(=O)(=O)O)cc2)ccc1C(=O)O,Not Active,,
O=C(O)c1ccccc1-n1c2ccccc2c2ccccc21,,,IC50 [3]: Not Active
Cc1ccc(C)n1-c1ccc(Cl)cc1C(=O)O,Not Active,,
Cc1ccc(C)n1-c1cc(C(=O)N/N=C/c2ccccc2N2CCOCC2)ccc1C(=O)O,Not Active,Not Active,IC50 ([3]; read-out: IC50): 7.05 µM
CC(=O)Oc1cc(-n2c(C)ccc2C)ccc1C(=O)O,,,IC50 [3]: Not Active
Cc1ccc(C)n1-c1cc(C(=O)N/N=C/c2cccnc2)ccc1C(=O)O,,Not Active,
Cc1ccc(C)n1-c1cc(C(=O)NCCc2cccc(C(=O)O)c2)ccc1C(=O)O,,,IC50 ([3]; read-out: IC50): 7.27 µM
Cc1ncc(CO)c(/C=N/NC(=O)c2ccc(C(=O)O)c(-n3c(C)ccc3C)c2)c1O,Not Active,,
Cc1ccc(C)n1-c1cc(C(=O)N/N=C/c2ccc(O)cc2)ccc1C(=O)O,Not Active,Not Active,
O=C(O)c1ccccc1-n1cccc1,,,inhibition [4]: inactive; inhibition [5]: inactive; inhibition [6]: inactive; inhibition [7]: inactive
Cc1ccc(C)n1-c1cc(C(=O)N/N=C/c2c[nH]c3ccc(C#N)cc23)ccc1C(=O)O,,,"EC50 [1, 8]: 5.75 µM; EC50 [2, 9]: 3240 µM"
Cc1ccc(C)n1-c1cc(C(=O)N/N=C/c2c[nH]c3cc(F)ccc23)ccc1C(=O)O,Not Active,,

Compound,EC50 ([1]; mm1.s),EC50 ([2]; nci-h2171),other results
CC(=O)OCOC(=O)c1ccccc1-n1ccnc1C,,,IC50 [3]: Not Active
CC(=O)OCOC(=O)c1ccc(-n2c(C)ccc2C)cc1O,,,"EC50 [1, 8]: 11 to 446 µM; EC50 [2, 9]: 2.8 to 66.1 µM"
Cc1ccc(C)n1-c1cc(C(=O)N/N=C/c2ccc(-c3cncnc3)cc2)ccc1C(=O)O,Not Active,Not Active,
COC(=O)c1ccc(-n2c(C)ccc2C)cc1O,Not Active,Not Active,
Cc1ccc(C)n1-c1cc(C(=O)N/N=C/c2c[nH]cn2)ccc1C(=O)O,Not Active,Not Active,
Cc1c(C)c(C)n(-c2ccccc2C(=O)O)c1C,,,IC50 ([3]; read-out: IC50): 83.4 µM
CC(=O)OCOC(=O)c1ccccc1-n1c(C)ccc1C,,,"EC50 [1, 8]: 52.3 to 71.4 µM; EC50 [2, 9]: 20.7 to 29.9 µM"
Cc1ccc(C)n1-c1c(C(=O)O)cccc1[N+](=O)[O-],,,IC50 [3]: Not Active
CC(=O)OCOC(=O)c1ccccc1N1CCN(C)CC1,,,IC50 [3]: Not Active
Cc1ccc(C)n1-c1cc(C(=O)N/N=C/c2cc(F)c(F)c(F)c2)ccc1C(=O)O,Not Active,,
Cc1ccc(C)n1-c1cc(C(=O)N/N=C/c2ncc[nH]2)ccc1C(=O)O,Not Active,,
Cc1ccc(C)n1-c1ccc(C(=O)O)c(O)c1,,,"EC50 [1, 8]: 517 to 1440 µM; EC50 [2, 9]: 189 to 517 µM"
Cc1ccc(C)n1-c1cc(C(=O)N/N=C/c2cccc(B(O)O)c2)ccc1C(=O)O,Not Active,Not Active,
Cc1ccc(C)n1-c1cc(C(=O)N/N=C/c2c[nH]c3ccc(F)cc23)ccc1C(=O)O,Not Active,Not Active,
Cc1ccc(C)n1-c1ccccc1C(N)=O,,,IC50 [3]: Not Active
